Experimental findings from patent publication US20260241049A1, “Radiopharmaceutical Compositions Targeting Glypican-3 and Uses Thereof” (RayzeBio, Inc., priority 2023, published 2026) are described below.

B1: Lu-C-22 (peptide)
peptide: {CH2CO}-[NMeK](DOTA‑Lu″)[MeHseMe(3)]D[NMeQ][Phe(4-COOH)]II[Phe(4-CH2COOH)][NMe2Nal]G[Phe(4-(1-Me-pyrazol-4-yl))][NMeC]-NH2
modifications: thioether N-12
B2: Macrocyclic peptide of Example 2-19 (SEQ ID No. 37) (peptide)
peptide: {CH2CO}-[NMeQ][MeHseMe]D[NMeQ][Phe(4-COOH)][Thr(Me)]I[YaeCOpipzaa][NMe2Nal]G[3Pal(6-Ph)][NMeC]-NH2
modifications: thioether N-12
SMILES: CC[C@H](C)[C@@H]1NC(=O)[C@H]([C@@H](C)OC)NC(=O)[C@H](Cc2ccc(C(=O)O)cc2)NC(=O)[C@H](CCC(N)=O)N(C)C(=O)[C@H](CC(=O)O)NC(=O)[C@H](CCOC)N(C)C(=O)[C@H](CCC(N)=O)N(C)C(=O)CSC[C@@H](C(N)=O)N(C)C(=O)[C@H](Cc2ccc(-c3ccccc3)nc2)NC(=O)CNC(=O)[C@H](Cc2ccc3ccccc3c2)N(C)C(=O)[C@H](Cc2ccc(OCCNC(=O)N3CCN(CC(=O)O)CC3)cc2)NC1=O
B3: Macrocyclic peptide of Example 2-23 (SEQ ID No. 43) (peptide)
peptide: {CH2CO}-[NMeA][NMeQ]D[NMeQ][Phe(4-COOH)]II[Phe(4-COOH)][NMe2Nal]G[3Pal(6-Ph)][NMeC]-NH2
modifications: thioether N-12
SMILES: CC[C@H](C)[C@@H]1NC(=O)[C@H](Cc2ccc(C(=O)O)cc2)NC(=O)[C@H](CCC(N)=O)N(C)C(=O)[C@H](CC(=O)O)NC(=O)[C@H](CCC(N)=O)N(C)C(=O)[C@H](C)N(C)C(=O)CSC[C@@H](C(N)=O)N(C)C(=O)[C@H](Cc2ccc(-c3ccccc3)nc2)NC(=O)CNC(=O)[C@H](Cc2ccc3ccccc3c2)N(C)C(=O)[C@H](Cc2ccc(C(=O)O)cc2)NC(=O)[C@H]([C@@H](C)CC)NC1=O
B4: Lu-C-26 (peptide)
peptide: {CH2CO}-[NMeQ][NMeQ]D[NMeK](DOTA‑Lu″)[Phe(4-COOH)]II[Phe(4-CH2COOH)][NMe2Nal]G[Phe(4-(1-Me-pyrazol-4-yl))][NMeC]-NH2
modifications: thioether N-12

Starred links: 1 amine or outer side, 2 acyl side, 3 side chain; linkers in the order of their positions; H or OH if unused. Positions of bridges follow the written chain, without caps; N, C: chain ends. Non-standard residues stand in square brackets, D forms with d. Residues, ends and D or L forms follow the SMILES beside them. Groups on a side chain read outwards from the residue. Primed or numbered codes have the meaning given here. *: point of attachment. YaeCOpipzaa = 2-amino-3-(4-(2-(4-(carboxymethyl)piperazine-1-carboxamido)ethoxy)phenyl)propanoic acid, O=C(NCCOc1ccc(C[C@H](N[*:1])C(=O)[*:2])cc1)N1CCN(CC(=O)[*:3])CC1; MeHseMe(3) = N-methyl-O-methyl-homoserine, 4-methoxy-2-(methylamino)butanoic acid, COCC[C@@H](C(=O)[*:2])N(C)[*:1]; Thr(Me) = O-methyl threonine, (3R)-2-amino-3-methoxybutanoic acid, CO[C@H](C)[C@H](N[*:1])C(=O)[*:2]; DOTA‑Lu″ = DOTA chelate of lutetium (175Lu), attached as an amide to the side-chain amine; MeHseMe = N-methyl-O-methyl-L-homoserine, COCC[C@@H](C(=O)[*:2])N(C)[*:1]; Phe(4-(1-Me-pyrazol-4-yl)) = Cn1cc(-c2ccc(C[C@H](N)C(=O)O)cc2)cn1; NMeAla(isoquinolin-7-yl) = CN[C@@H](Cc1ccc2ccncc2c1)C(=O)O; DOTA = O=C(O)CN1CCN(CC(=O)O)CCN(CC(=O)*)CCN(CC(=O)O)CC1; CH2CON(CH2CH2)2NCH2COOH = O=C(O)CN1CCN(C(=O)C*)CC1; Phe(4-CH2COOH) = N[C@@H](Cc1ccc(CC(=O)O)cc1)C(=O)O; 3Pal(6-Ph) = N[C@@H](Cc1ccc(-c2ccccc2)nc1)C(=O)O; Phe(4-COOH) = N[C@@H](Cc1ccc(C(=O)O)cc1)C(=O)O; Phe(4-CH2NH2) = NCc1ccc(C[C@H](N)C(=O)O)cc1; Piperazinyl(4-CH2COOH) = O=C(O)CN1CCN(*)CC1; NMe2Nal = CN[C@@H](Cc1ccc2ccccc2c1)C(=O)O; AEF = NCCOc1ccc(C[C@H](N)C(=O)O)cc1; NMeI = CC[C@H](C)[C@H](NC)C(=O)O; NMeQ = CN[C@@H](CCC(N)=O)C(=O)O; NMehSer = CN[C@@H](CCO)C(=O)O; NMeK = CN[C@@H](CCCCN)C(=O)O; NMeC = CN[C@@H](CS)C(=O)O; Carboxymethyl = O=C(O)C*; NMeA = CN[C@@H](C)C(=O)O; CO = O=C([*:1])[*:2]

One assay has as its target Human Glypican3-Fc (Homo sapiens, UniProt P51654). The assay is described as follows: SPR binding to Glypican-3, Method B-2 (Glypican3-Fc captured by anti-human IgG (Fc) antibody on CM3 chip). To be noted: SPR method B-2. As for the experimental part: (§1) A CM3 sensor chip (Cytiva) was inserted into a Biacore T200 (Cytiva), primed three times with a running buffer: HBS-P-+, pH 7.4 (Cytiva), and equilibrated at a flow rate of 30 μL/min. Using the Anti-Fc Capture Kit (Cytiva), 50 LL each of 60 mM EDC solution (Cytiva) and 650 mM NHS solution (Cytiva) were mixed, and then reacted at a flow rate of 10 μL/min for 420 seconds, 150 μL of […] Anti-human IgG (Fc) Antibody solution was prepared by diluting with 10 mM acetic acid solution (pH 5.0), reacted at a flow rate of 10 μL/min for 420 seconds, and immobilized on a CM3 sensor chip. After immobilization, 1.0 M ethanolamine aqueous solution (Cytiva) was allowed to react for 420 seconds at a flow rate of 10 μL/min for capping. Human Glypican3-Fc (ACRO Biosystems, GP3-H5258) was allowed to react for 60 seconds at a flow rate of 10 μL/min. After capturing human Glypican3-Fc, a peptide solution prepared to 10 mM in DMSO solution was diluted with a running buffer to a final concentration of 10 μM. After that, 5 serial dilution series (100 nM, 50 nM, 25 nM, 10 nM, 5 nM) of peptide solutions were prepared. Using the above samples, peptide kinetics for Glypican3 was obtained by SPR measurement. Kinetics evaluation of Glypican3 was performed by SPR measurements at a flow rate of 10 μL/min. setting the association time to 120 seconds and the disassociation time to 600 seconds.
The obtained data by Method B-1, Method B-2, Method B-3 and Method B-4 were analyzed by follow. Single Cycle Kinetics was used as the kinetics evaluation model, and curve fitting was performed using Biacore T200 Evaluation Software Version 3.0 (Cytiva). The obtained sensorgram was subjected to curve fitting by the method of least squares and obtained KD values of the macrocyclic peptides in this disclosure for Glypican 3 protein are shown in Table 18.
Molecule `CC[C@H](C)[C@@H]1NC(=O)[C@H](Cc2ccc(C(=O)O)cc2)NC(=O)[C@H](CCC(N)=O)N(C)C(=O)[C@H](CC(=O)O)NC(=O)[C@H](CCC(N)=O)N(C)C(=O)[C@H](CCC(N)=O)N(C)C(=O)CSC[C@@H](C(N)=O)N(C)C(=O)[C@H](Cc2ccc(-c3cnn(C)c3)cc2)NC(=O)CNC(=O)[C@H](Cc2ccc3ccccc3c2)N(C)C(=O)[C@H](Cc2ccc(OCCNC(=O)CN3CCN(CC(=O)O)CCN(CC(=O)O)CCN(CC(=O)O)CC3)cc2)NC(=O)[C@H]([C@@H](C)CC)NC1=O` [Lu-C-28] ({CH2CO}-[NMeQ][NMeQ]D[NMeQ][Phe(4-COOH)]II[AEF](DOTA)[NMe2Nal]G[Phe(4-(1-Me-pyrazol-4-yl))][NMeC]-NH2; thioether N-12) yielded a Kd of 1.8 nM.
On the same count and under the same terms, with `CC[C@H](C)[C@@H]1NC(=O)[C@H]([C@@H](C)OC)NC(=O)[C@H](Cc2ccc(C(=O)O)cc2)NC(=O)[C@H](CCC(N)=O)N(C)C(=O)[C@H](CC(=O)O)NC(=O)[C@H](CCOC)N(C)C(=O)[C@H](CCC(N)=O)N(C)C(=O)CSC[C@@H](C(N)=O)N(C)C(=O)[C@H](Cc2ccc(-c3ccccc3)nc2)NC(=O)CNC(=O)[C@H](Cc2ccc3ccccc3c2)N(C)C(=O)[C@H](Cc2ccc(OCC(=O)N3CCN(CC(=O)O)CC3)cc2)NC1=O` [Conjugate 2-22] ({CH2CO}-[NMeQ][NMehSer](Me)D[NMeQ][Phe(4-COOH)]T(Me)IY(CH2CON(CH2CH2)2NCH2COOH)[NMe2Nal]G[3Pal(6-Ph)][NMeC]-NH2; thioether N-12) the figure was 0.8 nM; with `CC[C@H](C)[C@@H]1NC(=O)[C@H]([C@@H](C)OC)NC(=O)[C@H](Cc2ccc(C(=O)O)cc2)NC(=O)[C@H](CCC(N)=O)N(C)C(=O)[C@H](CC(=O)O)NC(=O)[C@H](CCOC)N(C)C(=O)[C@H](CCC(N)=O)N(C)C(=O)CSC[C@@H](C(N)=O)N(C)C(=O)[C@H](Cc2ccc(-c3ccccc3)nc2)NC(=O)CNC(=O)[C@H](Cc2ccc3ccccc3c2)N(C)C(=O)[C@H](Cc2ccc(CNC(=O)N3CCN(CC(=O)O)CC3)cc2)NC1=O` [Conjugate 2-20] ({CH2CO}-[NMeQ][NMehSer](Me)D[NMeQ][Phe(4-COOH)]T(Me)I[Phe(4-CH2NH2)]([CO-Piperazinyl(4-CH2COOH)])[NMe2Nal]G[3Pal(6-Ph)][NMeC]-NH2; thioether N-12), 0.7 nM; with `CC[C@H](C)[C@@H]1NC(=O)[C@H](Cc2ccc(C(=O)O)cc2)NC(=O)[C@H](CCC(N)=O)N(C)C(=O)[C@H](CC(=O)O)NC(=O)[C@H](CCC(N)=O)N(C)C(=O)[C@H](C)N(C)C(=O)CSC[C@@H](C(N)=O)N(C)C(=O)[C@H](Cc2ccc(-c3ccccc3)nc2)NC(=O)CNC(=O)[C@H](Cc2ccc3ccccc3c2)N(C)C(=O)[C@H](Cc2ccc(C(=O)O)cc2)NC(=O)[C@H]([C@@H](C)CC)NC1=O` [Conjugate 2-23] ({CH2CO}-[NMeA][NMeQ]D[NMeQ][Phe(4-COOH)]II[Phe(4-COOH)][NMe2Nal]G[3Pal(6-Ph)][NMeC]-NH2; thioether N-12), 1.5 nM.
In turn, `CC[C@H](C)[C@@H]1NC(=O)[C@H]([C@@H](C)OC)NC(=O)[C@H](Cc2ccc(C(=O)O)cc2)NC(=O)[C@H](CCC(N)=O)N(C)C(=O)[C@H](CC(=O)O)NC(=O)[C@H](CCOC)N(C)C(=O)[C@H](C)N(C)C(=O)CSC[C@@H](C(N)=O)N(C)C(=O)[C@H](Cc2ccc(-c3ccccc3)nc2)NC(=O)CNC(=O)[C@H](Cc2ccc3ccccc3c2)N(C)C(=O)[C@H](Cc2ccc(OCCNC(=O)CN3CCN(CC(=O)O)CCN(CC(=O)O)CCN(CC(=O)O)CC3)cc2)NC1=O` [Lu-C-44] ({CH2CO}-[NMeA][NMehSer](Me)D[NMeQ][Phe(4-COOH)]T(Me)I[AEF](DOTA)[NMe2Nal]G[3Pal(6-Ph)][NMeC]-NH2; thioether N-12) registered an equilibrium dissociation constant (Kd) of 1 nM.
Regarding `CC[C@H](C)[C@@H]1NC(=O)[C@H](Cc2ccc(C(=O)O)cc2)NC(=O)[C@H](CCC(N)=O)N(C)C(=O)[C@H](CC(=O)O)NC(=O)[C@H]([C@@H](C)CC)N(C)C(=O)[C@H](CCCCNC(=O)[C@H](Cc2c[nH]cn2)NC(=O)CN2CCN(CC(=O)O)CCN(CC(=O)O)CCN(CC(=O)O)CC2)N(C)C(=O)CSC[C@@H](C(N)=O)N(C)C(=O)[C@H](Cc2ccc(-c3ccccc3)nc2)NC(=O)CNC(=O)[C@H](Cc2ccc3ccncc3c2)N(C)C(=O)[C@H](Cc2ccc(OCC(=O)O)cc2)NC(=O)[C@H]([C@@H](C)CC)NC1=O` [Lu-C-34] ({CH2CO}-[NMeK]([His-DOTA])[NMeI]D[NMeQ][Phe(4-COOH)]IIY(Carboxymethyl)[NMeAla(isoquinolin-7-yl)]G[3Pal(6-Ph)][NMeC]-NH2; thioether N-12), binding was put at a Kd of 0.8 nM.
In turn, `CC[C@H](C)[C@@H]1NC(=O)[C@H]([C@@H](C)OC)NC(=O)[C@H](Cc2ccc(C(=O)O)cc2)NC(=O)[C@H](CCC(N)=O)N(C)C(=O)[C@H](CC(=O)O)NC(=O)[C@H](CCOC)N(C)C(=O)[C@H](CCC(N)=O)N(C)C(=O)CSC[C@@H](C(N)=O)N(C)C(=O)[C@H](Cc2ccc(-c3ccccc3)nc2)NC(=O)CNC(=O)[C@H](Cc2ccc3ccccc3c2)N(C)C(=O)[C@H](Cc2ccc(OCCNC(=O)N3CCN(CC(=O)O)CC3)cc2)NC1=O` [Conjugate 2-19] ({CH2CO}-[NMeQ][NMehSer](Me)D[NMeQ][Phe(4-COOH)]T(Me)I[AEF]([CO-Piperazinyl(4-CH2COOH)])[NMe2Nal]G[3Pal(6-Ph)][NMeC]-NH2; thioether N-12) came in with a Kd of 0.5 nM. Against the preceding molecule, the Kd is about 1.6-fold lower.

The target in another assay is T1, Human Glypican3-Fc (ACRO Biosystems, GP3-H5258) (human, UniProt P51654 25-559).
T1 construct: Bought fusion protein, captured in Methods B-2, B-3 and B-4; Catalogue number is printed only in Method B-2; not shown: Fc part of the bought fusion
Description: SPR (Biacore T200), Method B-2: human Glypican3-Fc captured by anti-human Fc on CM3 chip, peptide as analyte.
Details: not given
As for the experimental part: as §1, with “After that, 5 serial dilution series (100 nM, 50 nM, 25 nM, 10 nM, 5 nM) of peptide solutions were prepared.” left out
The obtained data by Method B-1, Method B-2, Method B-3 and Method B-4 were analyzed by follow. Single Cycle Kinetics was used as the kinetics evaluation model, and curve fitting was performed using Biacore T200 Evaluation Software Version 3.0 (Cytiva).
(SPR reads the build-up and loss of mass on a sensor chip optically.)
With B1, the affinity, expressed as Kd, was 1.99 nM.
On the same count and under the same terms, with B2 the figure was 0.5 nM.
Regarding B3, the Kd was determined as 1.5 nM. Against the preceding molecule, the Kd is about 3-fold higher.
Consider B4, for which the Kd stood at 2.52 nM.

One may read the Kd as the free concentration of one partner at which half of the binding sites on the other are occupied at equilibrium, for simple one-to-one binding. Higher therefore signals lower affinity.
